In PubChem BioAssay (NCI):
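Where inhibition never reached the appropriate level, the endpoint shown equals the highest concentration tested. Otherwise, values were interpolated linearly from a five-concentration, 48-hour dose response in 96-well plates. At the GI50, growth is halved. TGI is the concentration that stops growth completely.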

Legend:
Assay in all cases: growth of human tumour cells (NCI), 48 h
A498 renal = system: A498 renal
A549 NSCLC = system: A549 NSCLC
DU-145 prostate = system: DU-145 prostate
HCT-15 colon = system: HCT-15 colon
HS 578T breast = system: HS 578T breast
MDA-MB-231 breast = system: MDA-MB-231 breast
MDA-MB-435 = system: MDA-MB-435
NCI-H460 lung = system: NCI-H460 lung
PC-3 prostate = system: PC-3 prostate
SNB-75 CNS = system: SNB-75 CNS

Compound | TGI (A498 renal) [µM] | TGI (A549 NSCLC) [µM] | TGI (DU-145 prostate) [µM] | TGI (HCT-15 colon) [µM] | TGI (HS 578T breast) [µM] | TGI (MDA-MB-231 breast) [µM] | TGI (MDA-MB-435) [µM] | TGI (NCI-H460 lung) [µM] | TGI (PC-3 prostate) [µM] | TGI (SNB-75 CNS) [µM] | GI50 (A549 NSCLC) [µM] | GI50 (DU-145 prostate) [µM]
Cc1cc(C)c2c(=O)n(CN3CC4Nc5ccccc5C4C3)sc2n1 (stereo unspecified) | > 100 | > 100 | 40.9 | 44.3 | > 100 | 37.5 | 42.2 | 46.2 | 50.6 |  |  | 
CC(C)=CCc1c2c(c3occ(-c4ccc(O)c(O)c4)c(=O)c3c1O)C=CC(C)(C)O2 | 29 | 7.6 | 9.32 | 5.35 | 3.73 | 2.97 | 3.2 | 3.21 | 3.45 | 8.51 |  | 
COc1ccc(Nc2nc3ccc(C(F)(F)F)cc3nc2C(=O)O)cc1OC | 86.6 |  | > 100 | > 100 | 96.6 | > 100 | 82.5 | 54.6 | 94.6 | 81.5 |  | 
C[n+]1c(-c2ccccc2)cc2/c(=C\c3ccc([N+](=O)[O-])cc3)c3ccccc3n21 | > 100 | > 100 | 35.3 | > 100 | 4.04 | 16.1 | 14.4 | > 100 | 21.1 | 15.6 |  | 
CN(C)c1nc(=NCc2ccncc2)ss1 | > 100 | > 100 | > 100 | > 100 | 70.3 | > 54 | > 100 | > 100 | > 63.4 | 34.7 | > 100 | > 100
COc1cccc(-c2cc(=O)c3c(C)cc(C)nc3[nH]2)c1 | 10.8 | > 100 | > 72.1 | > 45.5 | > 100 | > 100 | 0.398 | > 42.1 | > 100 | 0.671 |  | 
O=C1c2ccccc2CN1c1ccc(O)cc1 | > 100 | > 100 | > 100 | > 100 | > 100 | > 100 | > 100 | > 100 | > 100 |  |  | 
CC(CC(C#N)(c1ccccc1)c1ccccc1)N1CCCCC1 (stereo unspecified) | 85.1 | > 100 | > 100 | 68.6 | 79.9 | 63.8 | 49.4 | 31.7 | > 100 | > 100 |  | 
C=C1[C@@H](O)C[C@@]23CC[C@@H]4[C@@]5(C)CC[C@@H](OC(C)=O)C(C)(C)[C@@H]5C[C@@H](OC5OC(COC(C)=O)C(O)C(O)C5O)[C@@]4(C)C2=CC[C@H]3[C@H]1C (stereo partly specified) | 23.8 | 16.8 | 22.6 | 27.8 | 22.4 | 21.4 | 15.3 | 17.2 | 13.9 | 16.1 |  | 
CC(=O)N/N=C1/NN(C(C)=O)C2(S1)C(=O)Nc1ccc(Br)cc12 (stereo unspecified) | > 100 | > 100 | > 100 | > 100 | > 100 | > 100 | > 100 | > 100 | > 100 | > 100 |  | 
CC(=O)OC[C@]1(C(=O)C(O)c2ccoc2)[C@H](C)CC[C@@]23COC(=O)C2=CCC[C@@H]31 (stereo partly specified) | > 10 | > 10 | > 10 | > 10 | > 10 | > 10 | > 10 | > 10 | > 10 | > 10 |  | 
Cc1ccc(S(=O)(=O)Oc2cc(N)c3c(n2)CCC3)cc1 | > 100 | > 100 | > 100 | > 100 | > 100 | > 100 | > 100 | > 100 | > 100 | > 100 |  | 
O=C(O)C1CC(c2ccc(F)cc2)=Nc2ccc(F)cc2S1 (stereo unspecified) | > 100 | > 100 | > 100 | > 100 | > 100 | > 100 | > 100 | > 100 | > 100 | > 100 |  | 
O=C1C(c2c(O)[nH]c3ccc(S(=O)(=O)O)cc23)=Nc2ccccc21 | > 100 | > 100 | > 100 | > 100 | > 100 | > 100 | > 100 | > 100 | > 100 | > 100 |  | 
C/C(N=Nc1nc2ccccc2s1)=C1/C=CC=CN1O | > 100 | > 100 | > 100 | > 100 | > 100 | > 100 | > 100 | > 100 | > 100 |  |  | 
O=C1CCSSCCC(=O)NCCN1 | > 100 | > 100 | > 100 | > 100 | > 100 | > 100 | > 100 | > 100 | > 100 |  |  | 
COc1cc2c(cc1OCCCCOc1cc(-c3ccc(F)cc3)nc(C)n1)N=C[C@@H]1CCCN1C2=O | 4.6 | 10.8 | 50 | 2.09 | 2.79 | 5.18 | 1.42 |  | 6.07 | 17.8 |  | 
